Experimental data: patent publication EP0338092A1, “ANTI-HIV AGENT” (Chugai Seiyaku Kabushiki Kaisha, priority 1987, dated 1989)

System: HIV
Experiment: Detection of viral antigen (indirect fluorescent antibody technique) in HIV-infected Molt-4 clone No. 8 cells
Format: cell-based
Procedure: The sodium salts of oligosaccharide poly-sulfate esters prepared in Preparation Examples 1 - 3 and 5 - 7 were used as test samples. Molt-4 clone No. 8 cells were infected with a virus obtained from Molt-4/HIV producing cell.
The experiment was conducted in accordance with the method of Itoh et al. described in Antiviral Research, 7 (1987), 361 - 367.
The proportions of HIV antigen positive cells were determined by an indirect fluorescent antibody technique using an anti-HIV antibody positive serum as antibody against the infected cells. The results are shown in Tables 2 and 3, in which each of the figure listed denotes the percentage of infected cells taken by HIV antigen positive cells.

[1] = Table 3, amount of sample added 7.8 µg/ml
[2] = Table 3, amount of sample added 32 µg/ml
[3] = Table 3, amount of sample added 125 µg/ml
[4] = Table 3, amount of sample added 500 µg/ml
[5] = Table 3, amount of sample added 1000 µg/ml

Row | Substance | percentage of infected cells taken by HIV antigen positive cells [1] [%] | percentage of infected cells taken by HIV antigen positive cells [2] [%] | percentage of infected cells taken by HIV antigen positive cells [3] [%] | percentage of infected cells taken by HIV antigen positive cells [4] [%] | percentage of infected cells taken by HIV antigen positive cells [5] [%]
1 | sodium salt of maltopentaose sulfate ester [compound 6] | 24.1 | 6.4 | 6.0 | 4.4 | 4.6
2 | sodium salt of maltoheptaose sulfate ester [compound 7] | 18.2 | 4.8 | 4.4 | 4.1 | 3.2
3 | sodium salt of maltohexaose sulfate ester [compound 5] | 20.3 | 5.3 | 5.8 | 3.6 | 4.4
